ChEMBL document CHEMBL4251622, “Design, synthesis, and biological evaluation of polo-like kinase 1/eukaryotic elongation factor 2 kinase (PLK1/EEF2K) dual inhibitors for regulating breast cancer cells apoptosis and autophagy” (Eur J Med Chem, 2018)
Calls of active or inactive are those of the source. The calls are words filed in the database; no cut-off is given here.

How the values were obtained:
[1] = molecular target: Serine/threonine-protein kinase PLK1 (Homo sapiens, UniProt P53350); experiment: Inhibition of full length human PLK1 at 20 uM using casein as substrate after 40 mins in presence of [gamma-33P]-ATP by radiometric assay relative to control
[2] = molecular target: T1, Eukaryotic elongation factor 2 kinase (Homo sapiens) (UniProt O00418); experiment: Inhibition of GST-tagged EEF2K (unknown origin) at 20 uM using biotinylated EEF2 peptide substrate by HTRF assay relative to control
T1 sequence (whole entry): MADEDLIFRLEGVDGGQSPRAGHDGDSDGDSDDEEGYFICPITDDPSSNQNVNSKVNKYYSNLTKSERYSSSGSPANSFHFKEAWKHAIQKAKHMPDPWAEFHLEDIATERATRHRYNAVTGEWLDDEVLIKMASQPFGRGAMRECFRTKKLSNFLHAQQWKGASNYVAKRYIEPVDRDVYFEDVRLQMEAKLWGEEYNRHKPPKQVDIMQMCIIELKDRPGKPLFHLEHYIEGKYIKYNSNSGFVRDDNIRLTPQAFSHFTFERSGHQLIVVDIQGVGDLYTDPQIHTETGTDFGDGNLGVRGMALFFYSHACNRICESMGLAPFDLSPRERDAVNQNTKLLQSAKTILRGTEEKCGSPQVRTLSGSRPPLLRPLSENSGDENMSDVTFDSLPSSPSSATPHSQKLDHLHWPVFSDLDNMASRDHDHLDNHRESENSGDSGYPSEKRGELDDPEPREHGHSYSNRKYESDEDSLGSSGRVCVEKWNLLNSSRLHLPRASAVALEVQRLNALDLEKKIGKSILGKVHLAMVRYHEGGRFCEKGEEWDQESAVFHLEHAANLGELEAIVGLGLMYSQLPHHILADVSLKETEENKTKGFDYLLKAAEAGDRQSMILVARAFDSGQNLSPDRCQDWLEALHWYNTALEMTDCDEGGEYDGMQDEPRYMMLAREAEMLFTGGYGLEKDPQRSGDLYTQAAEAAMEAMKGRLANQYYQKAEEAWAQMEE

MCF7 = experiment: Cytotoxicity against human MCF7 cells after 24 hrs by MTT assay; type: functional, cell-based; settings: MCF7, 24 h
BT-483 [3] = experiment: Induction of apoptosis in human BT-483 cells assessed as early apoptotic cells at 5 uM by Annexin V-FITC/propidium iodide staining based flow cytometry (reference value: 2.01%); type: functional
BT-483 [4] = experiment: Induction of apoptosis in human BT-483 cells assessed as live cells at 10 uM by Annexin V-FITC/propidium iodide staining based flow cytometry (reference value: 87.5%); type: functional
BT-483 [5] = experiment: Induction of apoptosis in human BT-483 cells assessed as late apoptotic cells at 10 uM by Annexin V-FITC/propidium iodide staining based flow cytometry (reference value: 0.36%); type: functional
BT-483 [6] = experiment: Induction of apoptosis in human BT-483 cells assessed as necrotic cells at 10 uM by Annexin V-FITC/propidium iodide staining based flow cytometry (reference value: 0.18%); type: functional
BT-483 [7] = experiment: Induction of apoptosis in human BT-483 cells by Annexin V-FITC/propidium iodide staining based flow cytometry; type: functional, cell-based
BT-474 = experiment: Cytotoxicity against human BT474 cells after 24 hrs by MTT assay; type: functional, cell-based
BT-483 [8] = experiment: Induction of autophagy in human BT-483 cells assessed as degradation of SQSTM1 protein at 5 to 10 uM by Western blot analysis; type: functional, cell-based
BT-483 [9] = experiment: Downregulation of Bcl2 protein expression in human BT-483 cells at 5 to 10 uM by Western blot analysis; type: functional, cell-based
BT-483 [10] = experiment: Upregulation of cytochrome-c protein expression in human BT-483 cells at 5 to 10 uM by Western blot analysis; type: functional, cell-based
BT-483 [11] = experiment: Upregulation of Bad protein expression in human BT-483 cells at 5 to 10 uM by Western blot analysis; type: functional, cell-based
[12] = molecular target: Atypical kinase COQ8A, mitochondrial (Homo sapiens) (UniProt Q8NI60); experiment: Inhibition of wild-type human […] ADCK3 (M280 to Q647 residues) expressed in bacterial expression system assessed as residual activity at 1 uM by Kinomescan method relative to control
[13] = molecular target: ALK tyrosine kinase receptor (Homo sapiens) (UniProt Q9UM73); experiment: Inhibition of wild-type human partial length ALK (I1088 to E1409 residues) expressed in mammalian expression system assessed as residual activity at 1 uM by Kinomescan method relative to control
[14] = molecular target: Aurora kinase B (Homo sapiens) (UniProt Q96GD4); experiment: Inhibition of wild-type human partial length AURKB (D25 to A303 residues) expressed in mammalian expression system assessed as residual activity at 1 uM by Kinomescan method relative to control
[15] = molecular target: T1, Eukaryotic elongation factor 2 kinase (Homo sapiens); experiment: Inhibition of EEF2K (unknown origin) assessed as residual activity at 1 uM by Kinomescan assay relative to control
[16] = molecular target: Inhibitor of nuclear factor kappa-B kinase subunit alpha (Homo sapiens) (UniProt O15111); experiment: Inhibition of wild-type human full length IKK-alpha (M1 to E745 residues) expressed in mammalian expression system assessed as residual activity at 1 uM by Kinomescan method relative to control
[17] = molecular target: Inhibitor of nuclear factor kappa-B kinase subunit beta (Homo sapiens) (UniProt O14920); experiment: Inhibition of wild-type human full length IKK-beta (M1 to S756 residues) expressed in mammalian expression system assessed as residual activity at 1 uM by Kinomescan method relative to control
[18] = molecular target: Mitogen-activated protein kinase 9 (Homo sapiens) (UniProt P45984); experiment: Inhibition of wild-type human full length JNK2 (M1 to Q382 residues) expressed in mammalian expression system assessed as residual activity at 1 uM by Kinomescan method relative to control
[19] = molecular target: Serine/threonine-protein kinase STK11 (Homo sapiens) (UniProt Q15831); experiment: Inhibition of wild-type human full length LKB1 (M1 to Q433 residues) expressed in bacterial expression system assessed as residual activity at 1 uM by Kinomescan method relative to control
[20] = molecular target: Dual specificity mitogen-activated protein kinase kinase 2 (Homo sapiens) (UniProt P36507); experiment: Inhibition of wild-type human full length MEK2 (M1 to V400 residues) expressed in mammalian expression system assessed as residual activity at 1 uM by Kinomescan method relative to control
[21] = molecular target: Serine/threonine-protein kinase RIO2 (Homo sapiens) (UniProt Q9BVS4); experiment: Inhibition of wild-type human partial length RIOK2 (M1 to D313 residues) expressed in mammalian expression system assessed as residual activity at 1 uM by Kinomescan method relative to control
[22] = molecular target: TGF-beta receptor type-1 (Homo sapiens) (UniProt P36897); experiment: Inhibition of wild-type human partial length TGFBR1 (D179 to M503 residues) expressed in bacterial expression system assessed as residual activity at 1 uM by Kinomescan method relative to control
[23] = molecular target: Serine/threonine-protein kinase 32C (Homo sapiens) (UniProt Q86UX6); experiment: Inhibition of wild-type human partial length YANK3 (M68 to G486 residues) expressed in bacterial expression system assessed as residual activity at 1 uM by Kinomescan method relative to control
Chain of Serine/threonine-protein kinase 32C (Homo sapiens) (Q86UX6 whole entry, the tested form may be a part): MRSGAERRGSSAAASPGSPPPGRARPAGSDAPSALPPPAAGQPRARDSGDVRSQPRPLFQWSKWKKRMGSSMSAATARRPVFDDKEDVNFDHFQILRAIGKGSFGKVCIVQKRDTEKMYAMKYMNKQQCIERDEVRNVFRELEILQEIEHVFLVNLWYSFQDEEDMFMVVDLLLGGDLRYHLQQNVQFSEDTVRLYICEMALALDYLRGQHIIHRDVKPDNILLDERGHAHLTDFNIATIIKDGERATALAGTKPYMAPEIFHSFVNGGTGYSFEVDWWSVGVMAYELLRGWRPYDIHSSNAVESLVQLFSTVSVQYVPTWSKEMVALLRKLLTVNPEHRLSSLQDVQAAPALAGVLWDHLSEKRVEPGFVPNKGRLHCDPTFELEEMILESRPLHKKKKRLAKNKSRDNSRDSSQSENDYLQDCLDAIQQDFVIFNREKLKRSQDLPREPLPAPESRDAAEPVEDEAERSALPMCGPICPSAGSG

Chain of ALK tyrosine kinase receptor (Homo sapiens) (Q9UM73 19-1620 limits assumed): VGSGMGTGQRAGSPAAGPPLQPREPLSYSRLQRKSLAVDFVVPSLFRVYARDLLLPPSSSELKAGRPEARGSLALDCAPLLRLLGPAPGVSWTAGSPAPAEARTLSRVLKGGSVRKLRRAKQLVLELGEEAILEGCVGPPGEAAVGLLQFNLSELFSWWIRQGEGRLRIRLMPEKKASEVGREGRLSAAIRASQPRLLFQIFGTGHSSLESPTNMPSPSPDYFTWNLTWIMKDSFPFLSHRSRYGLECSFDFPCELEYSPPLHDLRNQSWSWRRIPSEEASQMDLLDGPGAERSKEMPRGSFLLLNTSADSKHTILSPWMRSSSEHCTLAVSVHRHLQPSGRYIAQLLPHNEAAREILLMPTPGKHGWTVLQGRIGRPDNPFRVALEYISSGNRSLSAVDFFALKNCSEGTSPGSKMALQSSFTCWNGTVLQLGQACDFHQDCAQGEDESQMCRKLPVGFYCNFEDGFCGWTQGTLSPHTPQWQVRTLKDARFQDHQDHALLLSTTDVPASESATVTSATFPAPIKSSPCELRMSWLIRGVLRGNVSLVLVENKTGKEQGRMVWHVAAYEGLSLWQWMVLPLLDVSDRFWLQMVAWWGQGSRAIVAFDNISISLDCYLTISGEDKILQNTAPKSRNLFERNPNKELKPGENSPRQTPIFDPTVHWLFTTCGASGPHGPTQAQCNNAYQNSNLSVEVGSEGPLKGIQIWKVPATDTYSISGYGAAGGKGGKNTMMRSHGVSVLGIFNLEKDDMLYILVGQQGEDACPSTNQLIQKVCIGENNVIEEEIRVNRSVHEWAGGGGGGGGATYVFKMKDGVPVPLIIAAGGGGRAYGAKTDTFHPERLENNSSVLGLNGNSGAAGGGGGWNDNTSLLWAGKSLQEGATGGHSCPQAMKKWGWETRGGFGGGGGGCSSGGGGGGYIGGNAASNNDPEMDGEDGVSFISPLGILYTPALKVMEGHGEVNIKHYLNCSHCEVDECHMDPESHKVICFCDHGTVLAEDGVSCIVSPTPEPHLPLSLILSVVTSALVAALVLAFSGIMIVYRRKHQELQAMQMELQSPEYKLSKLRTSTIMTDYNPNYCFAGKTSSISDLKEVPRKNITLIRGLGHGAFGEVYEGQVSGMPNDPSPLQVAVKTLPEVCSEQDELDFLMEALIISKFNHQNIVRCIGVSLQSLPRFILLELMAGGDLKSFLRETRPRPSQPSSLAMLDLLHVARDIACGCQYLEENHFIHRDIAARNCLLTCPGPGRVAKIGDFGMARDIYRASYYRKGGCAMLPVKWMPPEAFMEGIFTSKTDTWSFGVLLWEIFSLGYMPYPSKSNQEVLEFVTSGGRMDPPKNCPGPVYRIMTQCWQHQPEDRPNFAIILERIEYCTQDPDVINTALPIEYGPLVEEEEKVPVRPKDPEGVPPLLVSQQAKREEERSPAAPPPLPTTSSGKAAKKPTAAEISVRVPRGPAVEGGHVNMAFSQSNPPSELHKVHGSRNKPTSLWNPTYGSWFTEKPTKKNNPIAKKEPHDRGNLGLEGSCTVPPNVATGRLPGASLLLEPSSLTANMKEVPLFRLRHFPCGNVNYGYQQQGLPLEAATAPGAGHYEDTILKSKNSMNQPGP
Chain of Mitogen-activated protein kinase 9 (Homo sapiens) (P45984 whole entry, looked up, the tested form may be a part): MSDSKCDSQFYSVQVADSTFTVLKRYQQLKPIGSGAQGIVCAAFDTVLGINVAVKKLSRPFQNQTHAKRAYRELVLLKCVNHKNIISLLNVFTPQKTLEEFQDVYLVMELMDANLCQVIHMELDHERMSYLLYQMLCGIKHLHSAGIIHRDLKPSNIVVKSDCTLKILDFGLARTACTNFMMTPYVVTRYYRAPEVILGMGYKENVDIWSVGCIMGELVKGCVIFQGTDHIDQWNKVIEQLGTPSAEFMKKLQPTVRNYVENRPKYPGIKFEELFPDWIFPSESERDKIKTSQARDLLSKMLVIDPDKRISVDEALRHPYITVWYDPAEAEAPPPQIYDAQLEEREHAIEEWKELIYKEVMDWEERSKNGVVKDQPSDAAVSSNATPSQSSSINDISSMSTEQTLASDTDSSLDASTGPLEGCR
Chain of Serine/threonine-protein kinase RIO2 (Homo sapiens) (Q9BVS4 whole entry, looked up, the tested form may be a part): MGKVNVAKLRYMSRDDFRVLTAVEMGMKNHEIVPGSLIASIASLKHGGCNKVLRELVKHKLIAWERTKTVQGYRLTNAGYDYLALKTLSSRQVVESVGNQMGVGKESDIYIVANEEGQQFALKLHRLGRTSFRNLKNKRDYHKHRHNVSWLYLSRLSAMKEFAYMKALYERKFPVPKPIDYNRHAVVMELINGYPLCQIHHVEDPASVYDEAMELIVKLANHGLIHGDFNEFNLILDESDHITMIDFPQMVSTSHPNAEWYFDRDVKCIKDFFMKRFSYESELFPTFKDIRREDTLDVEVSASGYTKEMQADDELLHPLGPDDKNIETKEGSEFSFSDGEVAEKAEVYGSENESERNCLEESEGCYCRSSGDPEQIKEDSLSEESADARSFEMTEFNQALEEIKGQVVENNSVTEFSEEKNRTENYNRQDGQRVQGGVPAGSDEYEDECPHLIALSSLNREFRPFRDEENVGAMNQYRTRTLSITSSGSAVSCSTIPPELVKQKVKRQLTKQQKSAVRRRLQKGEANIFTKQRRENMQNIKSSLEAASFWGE
Chain of TGF-beta receptor type-1 (Homo sapiens) (P36897 whole entry, the tested form may be a part): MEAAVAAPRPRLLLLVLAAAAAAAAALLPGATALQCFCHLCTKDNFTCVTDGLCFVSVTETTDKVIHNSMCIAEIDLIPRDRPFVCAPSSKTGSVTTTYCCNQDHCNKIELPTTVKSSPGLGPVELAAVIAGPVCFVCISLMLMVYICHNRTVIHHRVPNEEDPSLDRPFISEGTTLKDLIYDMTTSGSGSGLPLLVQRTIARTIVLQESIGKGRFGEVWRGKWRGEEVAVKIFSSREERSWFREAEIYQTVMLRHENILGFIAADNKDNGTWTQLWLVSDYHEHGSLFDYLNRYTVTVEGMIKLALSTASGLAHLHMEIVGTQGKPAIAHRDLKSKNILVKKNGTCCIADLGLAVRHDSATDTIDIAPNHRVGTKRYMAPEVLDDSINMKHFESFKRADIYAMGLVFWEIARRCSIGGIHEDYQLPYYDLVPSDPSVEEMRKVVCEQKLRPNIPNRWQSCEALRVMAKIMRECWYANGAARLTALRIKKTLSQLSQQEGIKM
Chain of Dual specificity mitogen-activated protein kinase kinase 2 (Homo sapiens) (P36507 whole entry, the tested form may be a part): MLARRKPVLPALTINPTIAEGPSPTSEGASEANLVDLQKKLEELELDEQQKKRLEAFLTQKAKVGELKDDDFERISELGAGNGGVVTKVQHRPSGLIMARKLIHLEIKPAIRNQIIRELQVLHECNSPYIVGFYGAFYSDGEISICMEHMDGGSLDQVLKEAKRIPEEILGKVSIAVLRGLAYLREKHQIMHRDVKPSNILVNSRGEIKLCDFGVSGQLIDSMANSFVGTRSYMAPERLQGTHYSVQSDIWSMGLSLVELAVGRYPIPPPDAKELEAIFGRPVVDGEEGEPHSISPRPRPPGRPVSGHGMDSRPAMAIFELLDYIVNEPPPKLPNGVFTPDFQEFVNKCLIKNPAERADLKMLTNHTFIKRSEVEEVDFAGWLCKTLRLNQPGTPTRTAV
Chain of Inhibitor of nuclear factor kappa-B kinase subunit beta (Homo sapiens) (O14920 whole entry, the tested form may be a part): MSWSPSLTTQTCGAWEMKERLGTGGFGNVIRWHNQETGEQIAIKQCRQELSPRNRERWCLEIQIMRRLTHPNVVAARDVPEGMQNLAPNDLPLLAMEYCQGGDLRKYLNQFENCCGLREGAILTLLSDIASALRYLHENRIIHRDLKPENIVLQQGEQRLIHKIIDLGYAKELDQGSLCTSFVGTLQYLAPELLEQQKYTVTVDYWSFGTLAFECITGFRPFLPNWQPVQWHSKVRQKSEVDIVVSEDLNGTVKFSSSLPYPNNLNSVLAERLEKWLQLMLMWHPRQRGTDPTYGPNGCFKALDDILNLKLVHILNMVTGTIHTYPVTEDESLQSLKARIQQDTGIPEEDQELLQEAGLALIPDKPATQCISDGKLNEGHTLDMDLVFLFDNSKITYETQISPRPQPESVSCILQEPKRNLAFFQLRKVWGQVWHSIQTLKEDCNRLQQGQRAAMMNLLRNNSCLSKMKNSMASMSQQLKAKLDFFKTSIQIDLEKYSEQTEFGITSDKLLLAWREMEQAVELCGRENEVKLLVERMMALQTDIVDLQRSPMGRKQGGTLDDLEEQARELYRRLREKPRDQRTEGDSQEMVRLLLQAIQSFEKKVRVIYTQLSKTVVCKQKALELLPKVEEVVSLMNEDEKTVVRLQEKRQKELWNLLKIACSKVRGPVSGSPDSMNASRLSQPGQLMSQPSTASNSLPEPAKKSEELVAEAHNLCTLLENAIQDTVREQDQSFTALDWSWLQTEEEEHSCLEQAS

## CCNc1cc(-c2ccc(NC(=O)Nc3cccc(Cl)c3)cc2C(F)(F)F)ccn1
[1]
  inhibition: 94.9%
[2]
  inhibition: 82.7%
MCF7
  IC50: 1240 nM
BT-483 [3]
  Activity: 8.64%
BT-483 [4]
  Activity: 78.2%
BT-483 [5]
  Activity: 12%
BT-483 [6]
  Activity: 0.48%
BT-483 [7]
  Activity: Dose-dependent effect
BT-474
  Activity: Active
BT-483 [8]
  Activity: Active
BT-483 [9]
  Activity: Active
BT-483 [10]
  Activity: Active
BT-483 [11]
  Activity: Active
[12]
  Activity: 94%
[13]
  Activity: 88%
[14]
  Activity: 95%
[15]
  Activity: 11%
[16]
  Activity: 95%
[17]
  Activity: 92%
[18]
  Activity: 93%
[19]
  Activity: 75%
[20]
  Activity: 67%
[21]
  Activity: 67%
[22]
  Activity: 86%
[23]
  Activity: 73%
